Consider four compounds from ChEMBL document CHEMBL1127057, “Synthesis, optical resolution, absolute configuration, and preliminary pharmacology of (+)- and (-)-cis-2,3,3a,4,5,9b-hexahydro-1-methyl-1H- pyrrolo-[3,2-h]isoquinoline, a structural analog of nicotine” (J Med Chem, 1993).

Each structure is given as a SMILES string.

The species named for assay [1] is Mus musculus. Put plainly: Inhibition of spontaneous activity in mice. It is filed as functional.
For assay [2], the species on record is Mus musculus. Briefly: Inhibition of tail-flick response (antinociception) in mice. It is filed as functional.
Assay [3] in a line: Binding affinity was evaluated towards nicotine receptor in mouse brain. It is filed as tissue-based.
For assay [4], the species on record is Mus musculus. Briefly: Equilibrium dissociation constant (Kd) was determined.

With `c1cc2c(cn1)C1NCCC1CC2` (racemic), the ED50 – broadly, the midpoint of the dose-response relation – in assay [1] was 24.8 µmol/kg; in assay [2] it was 25.7 µmol/kg. Besides, in assay [3], the affinity, expressed as Ki, was 167 nM.
Consider `CN1CCC2CCc3ccncc3C21` (single isomer, unassigned; (+)), for which the figures for the ED50 in assay [1] and in assay [2] were 7.13 µmol/kg and 7.45 µmol/kg, respectively.
Regarding `CN1CCC2CCc3ccncc3C21` (single isomer, unassigned; (-)), the ED50 in assay [1] is 61.7 µmol/kg. The Ki (commonly the equilibrium dissociation constant of an inhibitor or competing ligand from its target) in assay [3] is 605 nM.
For the compound `CN1CCC[C@H]1c1cccnc1` [NICOTINE], the ED50 in assay [1] is 4.44 µmol/kg; in assay [2], 4.81 µmol/kg. The affinity in assay [4], expressed as Kd, was 1.41 nM.
